Test results from BigSolDB 2.1.

Cc1ccc2ccccc2c1
Conditions | solubility (mole fraction)
in 1,4-dioxane, 278.25 K | 0.468
in 1,4-dioxane, 283.25 K | 0.508
in 1,4-dioxane, 288.35 K | 0.575
in 1,4-dioxane, 293.25 K | 0.65
in 1,4-dioxane, 298.35 K | 0.726
in 1,4-dioxane, 303.25 K | 0.817
in acetone, 278.45 K | 0.218
in acetone, 283.25 K | 0.286
in acetone, 288.35 K | 0.368
in acetone, 293.25 K | 0.484
in acetone, 298.35 K | 0.588
in acetone, 303.25 K | 0.741
in ethanol, 278.25 K | 0.0389
in ethanol, 283.25 K | 0.058
in ethanol, 288.35 K | 0.109
in ethanol, 293.25 K | 0.148
in ethanol, 298.35 K | 0.287
in ethanol, 303.25 K | 0.458
in ethylene glycol, 278.25 K | 0.00742
in ethylene glycol, 283.25 K | 0.00811
in ethylene glycol, 288.35 K | 0.00864
in ethylene glycol, 293.25 K | 0.00963
in ethylene glycol, 298.35 K | 0.0102
in ethylene glycol, 303.25 K | 0.0115
in isopropanol, 278.25 K | 0.0276
in isopropanol, 283.25 K | 0.0508
in isopropanol, 288.35 K | 0.077
in isopropanol, 293.25 K | 0.133
in isopropanol, 298.35 K | 0.233
in isopropanol, 303.25 K | 0.43
in n-butanol, 278.25 K | 0.0596
in n-butanol, 283.25 K | 0.0794
in n-butanol, 288.35 K | 0.13
in n-butanol, 293.25 K | 0.223
in n-butanol, 298.35 K | 0.37
in n-butanol, 303.25 K | 0.68
in n-butyl acetate, 278.15 K | 0.621
in n-butyl acetate, 283.15 K | 0.673
in n-butyl acetate, 288.15 K | 0.729
in n-butyl acetate, 293.15 K | 0.787
in n-butyl acetate, 298.15 K | 0.849
in n-butyl acetate, 303.15 K | 0.951
in n-heptane, 278.15 K | 0.502
in n-heptane, 283.15 K | 0.579
in n-heptane, 288.15 K | 0.65
in n-heptane, 293.15 K | 0.726
in n-heptane, 298.15 K | 0.831
in n-heptane, 303.15 K | 0.906
in n-hexane, 278.95 K | 0.283
in n-hexane, 283.25 K | 0.348
in n-hexane, 288.35 K | 0.443
in n-hexane, 293.25 K | 0.55
in n-hexane, 298.35 K | 0.643
in n-hexane, 303.25 K | 0.811
